Results: the supplement of paper PMC13380429

Columns and labels:
Caco-2 [1] = experiment: cell viability relative to DMSO; higher = less toxic; settings: 72 h
Calu-3 [2] = experiment: as above; settings: 72 h
HepG2 [3] = experiment: as above; settings: 72 h
U2OS [4] = experiment: as above; settings: 72 h
Vero E6 [5] = experiment: as above; settings: 72 h
Caco-2 [6] = experiment: relative viability EC50 (midpoint between 100% and the lowest measured viability); higher = less toxic; settings: 72 h
Calu-3 [7] = experiment: as above; settings: 72 h
HepG2 [8] = experiment: as above; settings: 72 h
U2OS [9] = experiment: as above; settings: 72 h
Vero E6 [10] = experiment: as above; settings: 72 h
Caco-2 [11] = experiment: drug sensitivity score (DSS) for viability; higher = more toxic; extreme values may be limits of the assay; settings: 72 h
Calu-3 [12] = experiment: as above; settings: 72 h
HepG2 [13] = experiment: as above; settings: 72 h
U2OS [14] = experiment: as above; settings: 72 h
Vero E6 [15] = experiment: as above; settings: 72 h
[16] = system: A549-ACE2 infected with SARS-CoV-2; experiment: cell count relative to DMSO; higher = less toxic; settings: 24 h
[17] = system: A549-ACE2 infected with SARS-CoV-2; experiment: SARS-CoV-2 infection rate relative to DMSO; higher = more infection; settings: 24 h
A549-ACE2 = experiment: drug-induced phospholipidosis relative to tamoxifen; higher = more phospholipidosis
[18] = system: A549-ACE2 infected with SARS-CoV-2; experiment: morphology score (similarity to uninfected cells); higher = more like uninfected cells; settings: 24 h

Cc1nc2n(c(=O)c1CCN1CCC(c3noc4cc(F)ccc34)CC1)CCCC2O (stereo unspecified) [paliperidone]
cell viability [%]
Settings	Caco-2 [1]	Calu-3 [2]	HepG2 [3]	U2OS [4]	Vero E6 [5]
1 nM	93.6	104	107	99.5	113
10 nM	106	104	104	103	106
100 nM	90.7	93.2	108	97	109
1000 nM	104	100	95	101	103
10000 nM	118	102	100	99.9	92.4

Settings	drug sensitivity score	relative viability EC50 [µM]
Caco-2 [6]	–	> 10
Caco-2 [11]	0	–
Calu-3 [7]	–	> 10
Calu-3 [12]	0	–
HepG2 [8]	–	> 10
HepG2 [13]	0	–
U2OS [9]	–	> 10
U2OS [14]	0	–
Vero E6 [10]	–	> 10
Vero E6 [15]	0	–

Cc1cccc(C#Cc2ccccc2)n1 [MPEP]
cell viability [%]
Settings	Caco-2 [1]	Calu-3 [2]	HepG2 [3]	U2OS [4]	Vero E6 [5]
1 nM	98.7	91.5	98.8	103	98.1
10 nM	94.5	95.5	94.6	100	94.9
100 nM	98.1	88.2	101	98.6	96.6
1000 nM	102	89.6	101	103	97.1
10000 nM	95	91.1	103	94	95

Settings	drug sensitivity score	relative viability EC50 [µM]
Caco-2 [6]	–	> 10
Caco-2 [11]	0	–
Calu-3 [7]	–	> 10
Calu-3 [12]	0.1	–
HepG2 [8]	–	> 10
HepG2 [13]	0	–
U2OS [9]	–	> 10
U2OS [14]	0	–
Vero E6 [10]	–	> 10
Vero E6 [15]	0	–

COc1cc2c(Nc3ccc(NC(=O)c4ccccc4)cc3)ncnc2cc1OCCCN1CCOCC1
cell viability [%]
Settings	Caco-2 [1]	Calu-3 [2]	HepG2 [3]	U2OS [4]	Vero E6 [5]
1 nM	99.6	95.2	102	105	99.7
10 nM	96.8	95.5	107	98.3	101
100 nM	106	96.9	96.4	101	101
1000 nM	102	79.4	108	103	97.3
10000 nM	108	99.6	109	102	108

Settings	drug sensitivity score	relative viability EC50 [µM]
Caco-2 [6]	–	> 10
Caco-2 [11]	0	–
Calu-3 [7]	–	> 10
Calu-3 [12]	0	–
HepG2 [8]	–	> 10
HepG2 [13]	0	–
U2OS [9]	–	> 10
U2OS [14]	0	–
Vero E6 [10]	–	> 10
Vero E6 [15]	0	–

CC(C)(C)C(=O)NCCCC(=O)O [pivagabine]
cell viability [%]
Settings	Caco-2 [1]	Calu-3 [2]	HepG2 [3]	U2OS [4]	Vero E6 [5]
1 nM	92.3	101	99	101	95.1
10 nM	97.2	110	111	105	99.2
100 nM	88.8	98.3	98.5	98.4	96.4
1000 nM	95.9	99.1	106	101	98.3
10000 nM	92.2	106	108	102	91.7

Settings	drug sensitivity score	relative viability EC50 [µM]
Caco-2 [6]	–	> 10
Caco-2 [11]	0	–
Calu-3 [7]	–	> 10
Calu-3 [12]	0	–
HepG2 [8]	–	> 10
HepG2 [13]	0	–
U2OS [9]	–	> 10
U2OS [14]	0	–
Vero E6 [10]	–	> 10
Vero E6 [15]	0	–

Cc1ncc[nH]1 [2-methylimidazole]
cell viability [%]
Settings	Caco-2 [1]	Calu-3 [2]	HepG2 [3]	U2OS [4]	Vero E6 [5]
1 nM	98.7	96.7	95.3	98.7	96.2
10 nM	97.4	97.1	95.7	97.4	97.8
100 nM	92.6	112	89.7	101	96.1
1000 nM	107	107	96.2	97.8	94.9
10000 nM	104	117	91.5	99	108

Settings	drug sensitivity score	relative viability EC50 [µM]
Caco-2 [6]	–	> 10
Caco-2 [11]	0	–
Calu-3 [7]	–	> 10
Calu-3 [12]	0	–
HepG2 [8]	–	> 10
HepG2 [13]	0	–
U2OS [9]	–	> 10
U2OS [14]	0	–
Vero E6 [10]	–	> 10
Vero E6 [15]	0	–

O=C(O)[C@H](Cc1ccc(Nc2nccc3ccncc23)cc1)NC1=C(Br)C(=O)C12CCCCC2 [CT-7758]
cell viability [%]
Settings	Caco-2 [1]	Calu-3 [2]	HepG2 [3]	U2OS [4]	Vero E6 [5]
1 nM	97.5	108	99.3	101	97.6
10 nM	100	105	95.4	104	104
100 nM	88.9	95.3	105	96.6	93.3
1000 nM	105	89.6	101	98.6	98.2
10000 nM	102	104	101	96.5	93.4

Settings	drug sensitivity score	relative viability EC50 [µM]
Caco-2 [6]	–	> 10
Caco-2 [11]	0	–
Calu-3 [7]	–	> 10
Calu-3 [12]	0	–
HepG2 [8]	–	> 10
HepG2 [13]	0	–
U2OS [9]	–	> 10
U2OS [14]	0	–
Vero E6 [10]	–	> 10
Vero E6 [15]	0	–

Oc1ccc(-c2nc(-c3ccc(F)cc3)c(-c3ccncc3)[nH]2)cc1
cell viability [%]
Settings	Caco-2 [1]	Calu-3 [2]	HepG2 [3]	U2OS [4]	Vero E6 [5]
1 nM	88.1	87.3	101	96.6	97.7
10 nM	104	106	103	101	100
100 nM	100	104	102	94.8	91.1
1000 nM	95	118	94	98.1	93.4
10000 nM	91.1	91.2	83.5	89.8	111

Settings	drug sensitivity score	relative viability EC50 [µM]
Caco-2 [6]	–	> 10
Caco-2 [11]	0	–
Calu-3 [7]	–	> 10
Calu-3 [12]	0	–
HepG2 [8]	–	> 10
HepG2 [13]	0.9	–
U2OS [9]	–	> 10
U2OS [14]	0	–
Vero E6 [10]	–	> 10
Vero E6 [15]	0	–

CC(Oc1c(Cl)cccc1Cl)C1=NCCN1 (stereo unspecified) [lofexidine]
cell viability [%]
Settings	Caco-2 [1]	Calu-3 [2]	HepG2 [3]	U2OS [4]	Vero E6 [5]
1 nM	100	99.3	90.7	103	101
10 nM	106	108	105	106	101
100 nM	101	87.6	104	100	95.7
1000 nM	93.8	103	90.7	100	103
10000 nM	95.6	94.6	100	99.6	103

Settings	drug sensitivity score	relative viability EC50 [µM]
Caco-2 [6]	–	> 10
Caco-2 [11]	0	–
Calu-3 [7]	–	> 10
Calu-3 [12]	0	–
HepG2 [8]	–	> 10
HepG2 [13]	0	–
U2OS [9]	–	> 10
U2OS [14]	0	–
Vero E6 [10]	–	> 10
Vero E6 [15]	0	–

CCCCC(=O)N(Cc1ccc(-c2ccccc2-c2nnn[nH]2)cc1)[C@H](C(=O)O)C(C)C [valsartan]
cell viability [%]
Settings	Caco-2 [1]	Calu-3 [2]	HepG2 [3]	U2OS [4]	Vero E6 [5]
1 nM	92	103	107	101	101
10 nM	94.3	108	101	98.8	99.8
100 nM	88.6	95.6	93.4	96.9	98.1
1000 nM	102	102	97.3	97.2	100
10000 nM	96	90.9	103	101	99.9

Settings	drug sensitivity score	relative viability EC50 [µM]
Caco-2 [6]	–	> 10
Caco-2 [11]	0	–
Calu-3 [7]	–	> 10
Calu-3 [12]	0	–
HepG2 [8]	–	> 10
HepG2 [13]	0	–
U2OS [9]	–	> 10
U2OS [14]	0	–
Vero E6 [10]	–	> 10
Vero E6 [15]	0	–

Nc1nc(N)c(N=O)c(OCC2CCCCC2)n1 [NU-6027]
Settings	SARS-CoV-2 infection rate, [17] [%]	cell count, [16] [%]	cell viability, Caco-2 [1] [%]	cell viability, Calu-3 [2] [%]	cell viability, HepG2 [3] [%]	cell viability, U2OS [4] [%]	cell viability, Vero E6 [5] [%]	morphology score, [18]
1 nM	–	–	100	101	87.7	104	96	–
10 nM	–	–	97.5	117	92.7	101	105	–
100 nM	–	–	96.6	106	96.4	104	99.8	–
0.3 µM	104	100	–	–	–	–	–	-0.13
1000 nM	–	–	100	105	89.9	101	95	–
3 µM	68	103	–	–	–	–	–	0.59
10 µM	52	107	–	–	–	–	–	0.62
10000 nM	–	–	46	81.4	58.4	70.7	89.7	–
30 µM	41	100	–	–	–	–	–	0.46

drug-induced phospholipidosis [%], A549-ACE2
Settings	0.3 µM	0.833333 µM	3.33333 µM	6.66667 µM	10 µM	30 µM
24 h	1.28	-0.02	2.45	3.35	2.35	28.5
48 h	2.37	-0.39	-0.5	-1.38	1.26	–
72 h	1.92	-1.07	-2.27	-1.09	-1.29	–

Settings	drug sensitivity score	relative viability EC50 [µM]
Caco-2 [6]	–	3.17
Caco-2 [11]	2.9	–
Calu-3 [7]	–	> 10
Calu-3 [12]	0.3	–
HepG2 [13]	3.7	–
U2OS [14]	1.2	–
Vero E6 [10]	–	> 10
Vero E6 [15]	0	–

CC(=O)Nc1ccc(S(=O)(=O)Nc2ccc([N+](=O)[O-])cc2)cc1 [sulfanitran]
cell viability [%]
Settings	Caco-2 [1]	Calu-3 [2]	HepG2 [3]	U2OS [4]	Vero E6 [5]
1 nM	99	96.5	104	97.6	101
10 nM	96.6	105	94.5	106	94.5
100 nM	97.9	103	105	98.7	97
1000 nM	92.9	89	95	105	97.1
10000 nM	99.1	98.9	109	102	104

Settings	drug sensitivity score	relative viability EC50 [µM]
Caco-2 [6]	–	> 10
Caco-2 [11]	0	–
Calu-3 [7]	–	> 10
Calu-3 [12]	0	–
HepG2 [8]	–	> 10
HepG2 [13]	0	–
U2OS [9]	–	> 10
U2OS [14]	0	–
Vero E6 [10]	–	> 10
Vero E6 [15]	0	–
